Values quoted from earlier work as cited in patent US20140005605A1, “USE OF QUORUM SENSING INHIBITORS AND BIOFILM DISPERSING AGENTS FOR CONTROLLING BIOFILM-ASSOCIATED IMPLANTABLE MEDICAL DEVICE RELATED INFECTIONS” (priority 2012, published 2014).

How the values were obtained:
[1] = system: biofilms formed by Staphylococcus aureus
[2] = system: biofilms formed by Pseudomonas aeruginosa
[3] = system: Pseudomonas aeruginosa; conditions: mice treated with the QSI; promoted clearance by the murine immune system

SMILES | effectiveness against biofilms [1] | effectiveness against biofilms [2] | biofilm formation [3]
O=[N+]([O-])c1cc[n+]([O-])cc1 [4-nitro-pyridine-N-oxide] | effective | effective | –
CCCCCCC/C=C\C(=O)O [cis-2-decanoic acid] | effective | effective | –
O=C1C=C(Br)/C(=C/Br)O1 [furanone C-30] | – | – | inhibited biofilm formation
